According to patent US20180022780A1, “STABILIZATION ADRENOMEDULLIN DERIVATIVES AND USE THEREOF” (priority 2014, published 2018):
Bridge positions count the residues as written; N and C are the ends. Square brackets hold non-standard residues; d marks the D form. Peptide text beside a SMILES is read from it. * marks the point of attachment. X1 = CN(C)c1ccc2c(c1)Oc1cc(N(C)C)ccc1C21OC(=O)c2ccc(C(=O)*)cc21; Palmitoyl = CCCCCCCCCCCCCCCC(=O)*; Dap = NC[C@H](N)C(=O)O

Key:
[1] = Stability in human blood plasma (TAM-labeled analogues); format: in vitro ADME; details: 10E-5 M, 37° C., two phase decay, N-terminally TAM-labeled analogues, read-out: HalfLife (Slow) (converted)
Source text: FIG. 3: Stability of peptides in plasma calculated with GraphPad Prism 5 (GraphPad Software) using two phase decay analysis for the determination of half-life (slow) (Test 1e). N-terminally 6-carboxytetramethylrhodamine-(TAM)-labeled analogues of Control: TAM[G^14]ADM(14-52); Example 18: TAM[K^14(PAM), (Dpr^16, E^21)lac]ADM(14-52); and Example 27: TAM[K^14(PAM), (Dpr^16, E^21)lac, Nα-Me-K^46]ADM(14-52).
The stability of the peptides was investigated using N-terminally 6-carboxytetramethylrhodamine-(TAM)-labeled analogues.
Fluorescently labeled ADM analogues were prepared by using solid phase peptide synthesis (SPPS) as described before (general method for peptide synthesis). Manual coupling of 6-carboxytetramethylrhodamine (TAM) to the N-terminus of the peptides was carried out with a 3-fold molar excess of the fluorescence dye, 2-(1H-benzotriazol-1-yl)-1,1,3,3-tetramethyluronium hexafluorophosphate (HBTU) and N,N-Diisopropylethylamine (DIPEA) in DMF under constant shaking for 24 h the resin as described recently (Bohme D., Beck-Sickinger A. G. ChemMedChem 2015, 10: 804-14). The identity of the peptides was confirmed by mass spectrometry with an MALDI-MS (UltraflexIII, Bruker) and an ESI-MS (HCT, Bruker). The observed masses were in correspondence to the calculated masses.
The peptides were dissolved in 1.5 ml of human blood plasma to a concentration of 10E-5 M and incubated at 37° C. under constant shaking. […] The samples were analyzed by RP-HPLC using a Varian VariTide RPC column (particle size 6 μm; pore size 200 Å; 250×4.6 mm) with linear gradients of 0.1% TFA in water and 0.08% TFA in ACN; fluorescence emission was detected at λ=573 nm. The percentage of intact peptide was determined by peak integration. […] The stability of the peptides was calculated with GraphPad Prism 5 (GraphPad Software) using a two phase exponential decay function for the determination of slow-decay phase half-lives (ln(2)/Kslow; Kslow: rate constant of slow part of exponential decay) (Table 3 and FIG. 3).

[2] = target: T1, CLR fused to EYFP and RAMP2 fused to ECFP (Homo sapiens, UniProt O60895+Q16602); experiment: cAMP assay (CRE luciferase reporter, HEK-293 cells transiently co-transfected with CLR and RAMP2); format: cell-based; details: Table 2, cAMP assay; HEK-293, CLR/RAMP2, CRE luciferase, 3 h stimulation, normalized to [G^14]ADM(14-52)
T1 construct: EYFP; ECFP; expressed in transfected cells; host or cells: HEK-293 cells, transient co-transfection
T1 sequence (Q16602 23-461): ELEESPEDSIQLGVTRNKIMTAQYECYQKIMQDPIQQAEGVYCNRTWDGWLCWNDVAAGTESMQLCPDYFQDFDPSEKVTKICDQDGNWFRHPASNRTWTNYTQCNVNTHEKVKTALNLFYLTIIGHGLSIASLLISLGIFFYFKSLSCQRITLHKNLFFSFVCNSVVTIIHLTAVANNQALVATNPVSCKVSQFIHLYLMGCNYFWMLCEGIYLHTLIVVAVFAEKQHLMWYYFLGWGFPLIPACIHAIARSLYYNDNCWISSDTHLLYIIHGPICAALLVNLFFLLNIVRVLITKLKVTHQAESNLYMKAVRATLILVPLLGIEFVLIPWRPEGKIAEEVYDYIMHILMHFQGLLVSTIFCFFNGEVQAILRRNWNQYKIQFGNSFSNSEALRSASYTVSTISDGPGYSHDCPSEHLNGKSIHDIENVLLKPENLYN
T1 sequence (O60895 43-175): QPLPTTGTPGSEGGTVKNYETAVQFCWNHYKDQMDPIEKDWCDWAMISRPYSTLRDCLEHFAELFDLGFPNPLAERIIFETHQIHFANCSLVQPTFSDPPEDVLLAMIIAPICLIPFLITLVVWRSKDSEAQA
Procedure, shortened: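 HEK-293 cells transiently co-transfected with CLR-EYFP, RAMP2-ECFP and a CRE-luc2P luciferase reporter were stimulated with ligands (eight concentrations, triplicate) for 3 h at 37 °C. Luminescence was corrected to 5 µM forskolin, normalized to [G^14]ADM(14-52) standard, and fitted by non-linear regression to dose-response curves.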

[3] = target: T2, human adrenomedullin-receptor (Homo sapiens, UniProt O60895+Q16602); experiment: Tests on a recombinant adrenomedullin-receptor reporter cell (CHO, aequorin luminescence); format: cell-based; details: Table 1, CHO cell line carrying the human adrenomedullin-receptor
T2 construct: expressed in transfected cells; host or cells: CHO (Chinese hamster ovary) recombinant reporter cell line with aequorin
T2 sequence (Q16602 23-461): as the sequence (Q16602 23-461) above
T2 sequence (O60895 43-175): as the sequence (O60895 43-175) above
Procedure: Activation of the receptor by ligands was measured by aequorin luminescence. Construction of the cell line and measurement procedure has been described in detail [Wunder F., Rebmann A., Geerts A, and Kalthof B., Mol Pharmacol, 73, 1235-1243 (2008)]. In brief: Cells were seeded on opaque 384-well microtiter plates at a density of 4000 cells/well and were grown for 24 h. After removal of culture medium, cells were loaded for 3 h with 0.6 μg/ml coelenterazine in Ca^2+-free Tyrode solution (130 mM sodium chloride, 5 mM potassium chloride, 20 mM HEPES (4-(2-hydroxyethyl)-1-piperazineethanesulfonic acid), 1 mM magnesium chloride, and 4.8 mM sodium hydrogen carbonate, pH 7.4) supplemented with 0.2 mM 3-Isobutyl-1-methylxanthine (IBMX) in a cell culture incubator. Examples were added for 6 min in calcium^2+-free Tyrode solution containing 0.1% bovine serum albumin. Immediately before adding calcium^2+ to a final concentration of 3 mM measurement of the aequorin luminescence was started by use of a suitable luminometer. Luminescence was measured for 60 s. In a typical experiment compounds were tested in a concentration range of 1×10^−13 to 3×10^−6 M.

| Compound | half-life at 0.0001 M [1] [h] | EC50 [2] [µM] | EC50 [3] [µM] |
| --- | --- | --- | --- |
| CCCCCCCCCCCCCCCC(=O)NCCCC[C@H](NC(=O)c1ccc2c(c1)C1(OC2=O)c2ccc(N(C)C)cc2Oc2cc(N(C)C)ccc21)C(=O)NCC(=O)N[C@H]1CNC(=O)CC[C@@H](C(=O)N[C@H](C(=O)N[C@H](C(=O)N[C@@H](CCC(N)=O)C(=O)N[C@@H](CCCCN)C(=O)N[C@@H](CC(C)C)C(=O)N[C@@H](C)C(=O)N[C@@H](Cc2c[nH]cn2)C(=O)N[C@@H](CCC(N)=O)C(=O)N[C@H](C(=O)N[C@@H](Cc2ccc(O)cc2)C(=O)N[C@@H](CCC(N)=O)C(=O)N[C@@H](Cc2ccccc2)C(=O)N[C@H](C(=O)N[C@@H](CC(=O)O)C(=O)N[C@@H](CCCCN)C(=O)N[C@@H](CC(=O)O)C(=O)N[C@@H](CCCCN)C(=O)N[C@@H](CC(=O)O)C(=O)N[C@@H](CC(N)=O)C(=O)N[C@H](C(=O)N[C@@H](C)C(=O)N2CCC[C@H]2C(=O)N[C@@H](CCCNC(=N)N)C(=O)N[C@@H](CO)C(=O)N[C@@H](CCCCN)C(=O)N[C@H](C(=O)N[C@@H](CO)C(=O)N2CCC[C@H]2C(=O)N[C@@H](CCC(N)=O)C(=O)NCC(=O)N[C@@H](Cc2ccc(O)cc2)C(N)=O)[C@@H](C)CC)C(C)C)[C@@H](C)O)[C@@H](C)CC)C(C)C)[C@@H](C)O)NC(=O)[C@H]([C@@H](C)O)NC(=O)CNC(=O)[C@H](Cc2ccccc2)NC(=O)[C@H](CCCNC(=N)N)NC1=O [TAM-18, TAM[K^14(PAM), (Dpr^16, E^21)lac]ADM(14-52)] (X1-K(Palmitoyl)G[Dap]RFGTETVQKLAHQIYQFTDKDKDNVAPRSKISPQGY-NH2; lactam 3-8) | > 96 |  |  |
| CC[C@H](C)[C@H](NC(=O)[C@H](CCC(N)=O)NC(=O)[C@H](Cc1c[nH]cn1)NC(=O)[C@H](C)NC(=O)[C@H](CC(C)C)NC(=O)[C@H](CCCCN)NC(=O)[C@H](CCC(N)=O)NC(=O)[C@@H](NC(=O)[C@@H](NC(=O)[C@@H]1CCC(=O)NCCCC[C@H](NC(=O)CNC(=O)CN)C(=O)N[C@@H](CCCNC(=N)N)C(=O)N[C@@H](Cc2ccccc2)C(=O)NCC(=O)N[C@@H]([C@@H](C)O)C(=O)N1)[C@@H](C)O)C(C)C)C(=O)N[C@@H](Cc1ccc(O)cc1)C(=O)N[C@@H](CCC(N)=O)C(=O)N[C@@H](Cc1ccccc1)C(=O)N[C@H](C(=O)N[C@@H](CC(=O)O)C(=O)N[C@@H](CCCCN)C(=O)N[C@@H](CC(=O)O)C(=O)N[C@@H](CCCCN)C(=O)N[C@@H](CC(=O)O)C(=O)N[C@@H](CC(N)=O)C(=O)N[C@H](C(=O)N[C@@H](C)C(=O)N1CCC[C@H]1C(=O)N[C@@H](CCCNC(=N)N)C(=O)N[C@@H](CO)C(=O)N[C@@H](CCCCN)C(=O)N[C@H](C(=O)N[C@@H](CO)C(=O)N1CCC[C@H]1C(=O)N[C@@H](CCC(N)=O)C(=O)NCC(=O)N[C@@H](Cc1ccc(O)cc1)C(N)=O)[C@@H](C)CC)C(C)C)[C@@H](C)O [Example 2, ((2S,5S,11S,14S,23S)-23-(2-(2-aminoacetamido)acetamido)-5-benzyl-2-(3-guanidinopropyl)-11-((R)-1-hydroxyethyl)-3,6,9,12,17,24-hexaoxo-1,4,7,10,13,18-hexaazacyclotetracosane-14-carbonyl)-L-threonyl-ADM(22-52)] (H-GGKRFGTETVQKLAHQIYQFTDKDKDNVAPRSKISPQGY-NH2; lactam 3-8) |  | > 1 | > 1 |
| CC[C@H](C)[C@H](NC(=O)[C@H](CCC(N)=O)NC(=O)[C@H](Cc1c[nH]cn1)NC(=O)[C@H](C)NC(=O)[C@H](CC(C)C)NC(=O)[C@H](CCCCN)NC(=O)[C@H](CCC(N)=O)NC(=O)[C@@H](NC(=O)[C@@H](NC(=O)[C@@H]1CNC(=O)CC[C@H](NC(=O)CNC(=O)CN)C(=O)N[C@@H](CCCNC(=N)N)C(=O)N[C@@H](Cc2ccccc2)C(=O)NCC(=O)N[C@@H]([C@@H](C)O)C(=O)N1)[C@@H](C)O)C(C)C)C(=O)N[C@@H](Cc1ccc(O)cc1)C(=O)N[C@@H](CCC(N)=O)C(=O)N[C@@H](Cc1ccccc1)C(=O)N[C@H](C(=O)N[C@@H](CC(=O)O)C(=O)N[C@@H](CCCCN)C(=O)N[C@@H](CC(=O)O)C(=O)N[C@@H](CCCCN)C(=O)N[C@@H](CC(=O)O)C(=O)N[C@@H](CC(N)=O)C(=O)N[C@H](C(=O)N[C@@H](C)C(=O)N1CCC[C@H]1C(=O)N[C@@H](CCCNC(=N)N)C(=O)N[C@@H](CO)C(=O)N[C@@H](CCCCN)C(=O)N[C@H](C(=O)N[C@@H](CO)C(=O)N1CCC[C@H]1C(=O)N[C@@H](CCC(N)=O)C(=O)NCC(=O)N[C@@H](Cc1ccc(O)cc1)C(N)=O)[C@@H](C)CC)C(C)C)[C@@H](C)O [Example 6, ((3S,6S,12S,15S,18S)-18-(2-(2-aminoacetamido)acetamido)-12-benzyl-15-(3-guanidinopropyl)-6-((R)-1-hydroxyethyl)-5,8,11,14,17,21-hexaoxo-1,4,7,10,13,16-hexaazacyclohenicosane-3-carbonyl)-L-threonyl-ADM(22-52)] (H-GGERFGT[Dap]TVQKLAHQIYQFTDKDKDNVAPRSKISPQGY-NH2; lactam 3-8) |  | 0.303 | > 1 |
| CC[C@H](C)[C@H](NC(=O)[C@H](CCC(N)=O)NC(=O)[C@H](Cc1c[nH]cn1)NC(=O)[C@H](C)NC(=O)[C@H](CC(C)C)NC(=O)[C@H](CCCCN)NC(=O)[C@H](CCC(N)=O)NC(=O)[C@@H](NC(=O)[C@@H](NC(=O)[C@@H]1CSSC[C@H](NC(=O)CNC(=O)CNC(=O)c2ccc3c(c2)C2(OC3=O)c3ccc(N(C)C)cc3Oc3cc(N(C)C)ccc32)C(=O)N[C@@H](CCCNC(=N)N)C(=O)N[C@@H](Cc2ccccc2)C(=O)NCC(=O)N[C@@H]([C@@H](C)O)C(=O)N1)[C@@H](C)O)C(C)C)C(=O)N[C@@H](Cc1ccc(O)cc1)C(=O)N[C@@H](CCC(N)=O)C(=O)N[C@@H](Cc1ccccc1)C(=O)N[C@H](C(=O)N[C@@H](CC(=O)O)C(=O)N[C@@H](CCCCN)C(=O)N[C@@H](CC(=O)O)C(=O)N[C@@H](CCCCN)C(=O)N[C@@H](CC(=O)O)C(=O)N[C@@H](CC(N)=O)C(=O)N[C@H](C(=O)N[C@@H](C)C(=O)N1CCC[C@H]1C(=O)N[C@@H](CCCNC(=N)N)C(=O)N[C@@H](CO)C(=O)N[C@@H](CCCCN)C(=O)N[C@H](C(=O)N[C@@H](CO)C(=O)N1CCC[C@H]1C(=O)N[C@@H](CCC(N)=O)C(=O)NCC(=O)N[C@@H](Cc1ccc(O)cc1)C(N)=O)[C@@H](C)CC)C(C)C)[C@@H](C)O [TAM-control, TAM[G^14]ADM(14-52), reference compound] | 9 |  |  |
